Assay results taken from ChEMBL document CHEMBL3817743, “Potent and Selective Human Neuronal Nitric Oxide Synthase Inhibition by Optimization of the 2-Aminopyridine-Based Scaffold with a Pyridine Linker” (J Med Chem, 2016).

Tests used:
Nitric oxide synthase 1 = Nitric oxide synthase 1 (Rattus norvegicus, UniProt P29476); assay: Inhibition of rat recombinant nNOS expressed in Escherichia coli using L-arginine as substrate assessed as reduction in NO production measured for 6 mins in presence of tetrahydrobiopterin by hemoglobin capture assay
Sequence of Nitric oxide synthase 1 (P29476 whole entry): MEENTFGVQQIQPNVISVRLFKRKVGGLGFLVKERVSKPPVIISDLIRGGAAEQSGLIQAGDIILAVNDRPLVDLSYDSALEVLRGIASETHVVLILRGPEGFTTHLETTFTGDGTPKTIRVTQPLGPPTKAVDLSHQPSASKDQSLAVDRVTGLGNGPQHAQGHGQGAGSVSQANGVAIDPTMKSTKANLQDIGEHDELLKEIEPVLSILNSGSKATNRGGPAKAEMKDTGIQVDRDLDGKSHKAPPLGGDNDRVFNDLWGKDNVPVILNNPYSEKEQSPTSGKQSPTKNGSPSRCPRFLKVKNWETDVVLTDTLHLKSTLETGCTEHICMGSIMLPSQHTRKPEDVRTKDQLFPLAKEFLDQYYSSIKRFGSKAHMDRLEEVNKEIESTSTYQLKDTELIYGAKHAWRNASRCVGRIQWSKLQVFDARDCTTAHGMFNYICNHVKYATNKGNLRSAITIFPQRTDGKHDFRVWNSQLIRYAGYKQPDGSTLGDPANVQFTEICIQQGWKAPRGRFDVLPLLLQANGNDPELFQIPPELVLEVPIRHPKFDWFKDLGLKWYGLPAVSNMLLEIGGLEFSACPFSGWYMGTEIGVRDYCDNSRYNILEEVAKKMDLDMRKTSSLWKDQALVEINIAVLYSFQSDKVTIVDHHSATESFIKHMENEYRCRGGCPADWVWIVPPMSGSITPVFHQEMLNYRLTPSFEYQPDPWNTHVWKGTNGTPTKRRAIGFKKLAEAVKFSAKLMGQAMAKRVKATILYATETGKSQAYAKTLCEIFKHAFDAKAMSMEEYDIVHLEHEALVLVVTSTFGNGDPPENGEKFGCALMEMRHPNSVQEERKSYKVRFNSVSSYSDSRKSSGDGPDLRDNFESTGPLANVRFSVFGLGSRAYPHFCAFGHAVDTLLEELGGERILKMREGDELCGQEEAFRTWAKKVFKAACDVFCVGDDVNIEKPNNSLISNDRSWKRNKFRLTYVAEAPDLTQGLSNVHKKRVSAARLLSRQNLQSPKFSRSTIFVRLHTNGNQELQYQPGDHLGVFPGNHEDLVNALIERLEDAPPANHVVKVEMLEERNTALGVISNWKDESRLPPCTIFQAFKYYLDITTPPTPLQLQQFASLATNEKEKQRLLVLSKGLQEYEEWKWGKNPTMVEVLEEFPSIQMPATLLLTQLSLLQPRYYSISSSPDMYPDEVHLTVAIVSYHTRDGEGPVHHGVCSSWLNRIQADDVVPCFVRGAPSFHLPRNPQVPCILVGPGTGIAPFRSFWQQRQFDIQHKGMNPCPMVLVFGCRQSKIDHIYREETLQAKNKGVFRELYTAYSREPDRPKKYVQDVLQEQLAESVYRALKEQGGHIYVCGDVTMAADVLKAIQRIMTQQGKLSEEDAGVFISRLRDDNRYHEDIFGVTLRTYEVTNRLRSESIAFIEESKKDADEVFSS

[1] = target: T1, Nitric oxide synthase, inducible (Mus musculus, UniProt P29477); assay: Inhibition of recombinant mouse macrophage iNOS expressed in Escherichia coli using L-arginine as substrate assessed as reduction in NO production measured for 6 mins by hemoglobin capture assay
T1 sequence (P29477 whole entry): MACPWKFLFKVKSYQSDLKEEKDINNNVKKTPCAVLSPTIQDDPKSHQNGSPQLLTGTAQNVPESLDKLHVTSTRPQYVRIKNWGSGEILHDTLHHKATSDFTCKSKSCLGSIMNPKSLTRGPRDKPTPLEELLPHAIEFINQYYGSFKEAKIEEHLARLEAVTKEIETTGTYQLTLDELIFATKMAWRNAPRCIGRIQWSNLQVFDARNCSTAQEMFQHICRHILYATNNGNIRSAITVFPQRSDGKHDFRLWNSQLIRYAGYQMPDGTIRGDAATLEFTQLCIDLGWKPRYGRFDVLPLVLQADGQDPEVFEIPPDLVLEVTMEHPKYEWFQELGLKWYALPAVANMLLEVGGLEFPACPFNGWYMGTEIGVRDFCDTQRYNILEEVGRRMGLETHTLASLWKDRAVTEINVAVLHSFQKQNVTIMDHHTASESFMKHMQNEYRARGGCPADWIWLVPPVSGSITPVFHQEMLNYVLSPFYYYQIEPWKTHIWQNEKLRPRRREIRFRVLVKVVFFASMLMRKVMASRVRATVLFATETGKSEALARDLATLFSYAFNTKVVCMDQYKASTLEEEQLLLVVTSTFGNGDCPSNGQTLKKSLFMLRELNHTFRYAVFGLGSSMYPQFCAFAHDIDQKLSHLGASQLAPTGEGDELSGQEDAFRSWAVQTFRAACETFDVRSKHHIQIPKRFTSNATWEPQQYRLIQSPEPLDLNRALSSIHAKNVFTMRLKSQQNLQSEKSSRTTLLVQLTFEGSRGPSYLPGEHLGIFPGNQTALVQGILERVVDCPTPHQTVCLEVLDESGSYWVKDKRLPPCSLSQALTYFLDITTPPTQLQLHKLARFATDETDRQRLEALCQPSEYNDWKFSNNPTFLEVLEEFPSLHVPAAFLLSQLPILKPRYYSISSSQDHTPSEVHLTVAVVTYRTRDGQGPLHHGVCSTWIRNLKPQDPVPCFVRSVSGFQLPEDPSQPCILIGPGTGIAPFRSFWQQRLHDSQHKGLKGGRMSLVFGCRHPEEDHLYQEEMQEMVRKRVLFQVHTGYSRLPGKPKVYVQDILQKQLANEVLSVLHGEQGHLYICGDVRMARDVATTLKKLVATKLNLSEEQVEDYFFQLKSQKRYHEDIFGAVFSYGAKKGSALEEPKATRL

Cytochrome P450 1A2 = target: T2, Cytochrome P450 1A2 (Homo sapiens, UniProt P05177); assay: Inhibition of CYP1A2 in human liver microsomes using phenacetin as substrate at 10 uM preincubated for 5 mins followed by NADPH addition measured after 10 mins by LC-MS/MS analysis relative to control; format: ADME
T2 sequence (P05177 whole entry): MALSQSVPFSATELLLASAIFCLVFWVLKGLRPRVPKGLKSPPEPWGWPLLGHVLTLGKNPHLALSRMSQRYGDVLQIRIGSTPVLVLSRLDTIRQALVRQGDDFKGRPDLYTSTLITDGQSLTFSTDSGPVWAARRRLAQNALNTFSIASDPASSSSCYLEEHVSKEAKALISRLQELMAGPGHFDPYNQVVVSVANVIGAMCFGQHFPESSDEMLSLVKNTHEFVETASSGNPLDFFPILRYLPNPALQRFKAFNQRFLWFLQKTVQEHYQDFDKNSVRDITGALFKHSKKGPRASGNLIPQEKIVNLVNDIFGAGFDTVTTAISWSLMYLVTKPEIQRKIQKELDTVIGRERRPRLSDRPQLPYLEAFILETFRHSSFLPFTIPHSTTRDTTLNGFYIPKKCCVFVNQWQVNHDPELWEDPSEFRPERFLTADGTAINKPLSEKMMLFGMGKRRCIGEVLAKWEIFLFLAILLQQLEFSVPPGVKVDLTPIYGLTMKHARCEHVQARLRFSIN

Cytochrome P450 2C9 = Cytochrome P450 2C9 (Homo sapiens, UniProt P11712); assay: Inhibition of CYP2C9 in human liver microsomes using diclofenac as substrate at 10 uM preincubated for 5 mins followed by NADPH addition measured after 10 mins by LC-MS/MS analysis relative to control; format: ADME
Sequence of Cytochrome P450 2C9 (P11712 whole entry): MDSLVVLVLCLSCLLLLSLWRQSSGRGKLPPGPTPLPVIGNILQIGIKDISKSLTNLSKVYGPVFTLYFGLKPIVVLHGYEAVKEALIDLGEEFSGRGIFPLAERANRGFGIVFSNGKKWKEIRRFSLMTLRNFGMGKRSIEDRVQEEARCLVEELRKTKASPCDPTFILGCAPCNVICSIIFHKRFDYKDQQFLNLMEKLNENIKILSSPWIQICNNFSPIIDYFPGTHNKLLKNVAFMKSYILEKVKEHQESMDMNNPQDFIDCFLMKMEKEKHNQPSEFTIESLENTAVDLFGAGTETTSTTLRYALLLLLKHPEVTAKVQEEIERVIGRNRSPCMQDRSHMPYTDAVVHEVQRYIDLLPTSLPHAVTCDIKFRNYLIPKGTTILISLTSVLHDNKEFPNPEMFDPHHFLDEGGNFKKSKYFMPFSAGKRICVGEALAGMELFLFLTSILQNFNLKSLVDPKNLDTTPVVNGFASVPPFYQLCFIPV

Cytochrome P450 2D6 = Cytochrome P450 2D6 (Homo sapiens, UniProt P10635); assay: Inhibition of CYP2D6 in human liver microsomes using bufuralol as substrate at 10 uM preincubated for 5 mins followed by NADPH addition measured after 10 mins by LC-MS/MS analysis relative to control; format: ADME
Sequence of Cytochrome P450 2D6 (P10635 whole entry): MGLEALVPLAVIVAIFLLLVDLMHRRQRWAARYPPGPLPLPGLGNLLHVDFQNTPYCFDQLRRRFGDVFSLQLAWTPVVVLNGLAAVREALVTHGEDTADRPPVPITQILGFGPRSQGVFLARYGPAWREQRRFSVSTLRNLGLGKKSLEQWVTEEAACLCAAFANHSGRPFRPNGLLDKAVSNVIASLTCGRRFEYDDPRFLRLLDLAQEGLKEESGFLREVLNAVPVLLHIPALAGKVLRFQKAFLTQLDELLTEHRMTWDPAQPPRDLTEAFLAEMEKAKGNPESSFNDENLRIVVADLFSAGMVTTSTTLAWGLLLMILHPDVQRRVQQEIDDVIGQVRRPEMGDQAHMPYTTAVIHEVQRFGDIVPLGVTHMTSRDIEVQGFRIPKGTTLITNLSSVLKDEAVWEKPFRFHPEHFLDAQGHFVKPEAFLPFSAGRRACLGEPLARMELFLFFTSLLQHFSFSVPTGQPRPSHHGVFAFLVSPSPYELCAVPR

[2] = Drug metabolism in human liver microsomes at 1 uM incubated for 60 mins by LC-MS/MS analysis; format: ADME; conditions: read-out: Drug metabolism
[3] = Drug metabolism in human liver microsomes at 1 uM preincubated for 5 mins followed by NADPH addition measured after […] mins by LC-MS/MS analysis; format: ADME; conditions: read-out: Drug metabolism
[4] = Permeability from apical to basolateral side in human Caco2 cells at 10 uM after 2 hrs by LC-MS/MS analysis; format: ADME, cell-based; conditions: caco-2, 2 h

## Cc1cc(N)nc(CCc2cncc(N3CCCCC3)c2)c1
Nitric oxide synthase 1
  Ki: 1870 nM
[1]
  Ki: 5640 nM

## CNCCCc1cncc(CCc2cc(C)cc(N)n2)c1
Cytochrome P450 1A2
  inhibition (INH): 9%
Cytochrome P450 2C9
  inhibition (INH): 0%
Cytochrome P450 2D6
  inhibition (INH): 6%
[2]
  metabolised at 1 h, 1 µM: 23%
[3]
  metabolised at […], 1 µM: 23%
[4]
  permeability: impermeable

## Cc1cc(N)nc(CCc2cccnc2)c1
Nitric oxide synthase 1
  Ki: 706 nM
[1]
  Ki: 2780 nM
